Data set [1] relates to Rattus norvegicus.
Data set [2] has as its system Oryctolagus sp.
Data set [3] has as its system Canidae. Particulars: Dog Other.
Data set [4] deals with Mus musculus. The conditions noted are these: short-term; duration: 14 days.

As a reminder, the NOAEL is the highest dose or exposure tested at which no adverse effect was seen. The compound `COC[C@H](C)N(C(=O)CCl)c1c(C)csc1C` [Dimethenamid-P] registered a no-observed-adverse-effect level (NOAEL) in data set [1] (short-term, duration: 4 days) of 25 mg/kg-day. Regarding `O=C(Nc1ccccc1)Nc1ccnc(Cl)c1` [Forchlorfenuron], the no observed adverse effect level (NOAEL) in data set [2] (reproduction developmental) was 100 mg/kg-day. In data set [2] (reproduction developmental), `c1nc[n]([Sn]([CH]2CCCCC2)([CH]2CCCCC2)[CH]2CCCCC2)n1` [Azocyclotin] yielded an NOAEL of 2 mg/kg-day. Compound `CC(C)N1C(=O)c2ccccc2NS1(=O)=O` [Bentazone] registered an NOAEL in data set [1] (subchronic, duration: 90 days) of 25 mg/kg-day. `C=CC1(C)OC(=O)N(c2cc(Cl)cc(Cl)c2)C1=O` (configuration not stated) [Vinclozolin]: the NOAEL in data set [1] (developmental, development) amounted to 6 mg/kg-day.

In data set [2] (reproduction developmental), `CC1=C(C)S(=O)(=O)CCS1(=O)=O` [Dimethipin] yielded an NOAEL of 20 mg/kg-day.

`CC(=O)[O][Sn]([c]1ccccc1)([c]1ccccc1)[c]1ccccc1` [Triphenyltin acetate] yielded an NOAEL in data set [2] (reproduction developmental) of 0.1 mg/kg-day.

In turn, `O=C(O)COC(=O)c1cc(Oc2ccc(C(F)(F)F)cc2Cl)ccc1[N+](=O)[O-]` gave an NOAEL in data set [3] (subchronic, duration: 1 months) of 60 mg/kg-day. Consider `[OH-].c1cc[c]([Sn+]([c]2ccccc2)[c]2ccccc2)cc1` [Triphenyltin hydroxide], for which the NOAEL in data set [2] (reproduction developmental) stood at 0.1 mg/kg-day. `N#Cc1c(Cl)c(Cl)c(Cl)c(C#N)c1Cl` [Chlorothalonil] displayed an NOAEL in data set [1] (repeat dose other) of 60 mg/kg-day. In data set [1] (acute), `CCOP(=S)(OCC)SCSCC` [Phorate] returned an NOAEL of 0.3 mg/kg-day. The same measure, in the same setting: in the case of `COC(=O)N(C(=O)N1CO[C@@]2(C(=O)OC)Cc3cc(Cl)ccc3C2=N1)c1ccc(OC(F)(F)F)cc1` [Indoxacarb] it was 12.5 mg/kg-day. Take `CS(=O)(=O)c1ccc(C(=O)C2C(=O)CCCC2=O)c(Cl)c1COCC(F)(F)F` [Tembotrione]: the no observed adverse effect level (NOAEL) in data set [2] (developmental, development) was 1 mg/kg-day.

The compound `CCOC(=O)CSc1nc(C(C)(C)C)nn1C(=O)N(C)C` [Triazamate] gave a no observed adverse effect level (NOAEL) in data set [3] (acute) of 1.5 mg/kg-day.

On to `OC(c1ccc(Cl)cc1)(c1ccc(Cl)cc1)C(Cl)(Cl)Cl` [Dicofol], for which the NOAEL in data set [1] (acute) is 15 mg/kg-day.

On to `Cc1ccc(N=CN(C)C=Nc2ccc(C)cc2C)c(C)c1` [Amitraz], for which the no observed adverse effect level (NOAEL) in data set [3] (chronic, duration: 2 years) came out at 1 mg/kg-day; in data set [3] (subchronic, duration: 90 days), 1 mg/kg-day. For the compound `Cc1cc(Cl)ccc1OCCCC(=O)O` [Thitrol], the NOAEL in data set [2] (developmental, development) was determined as 5 mg/kg-day. Compound `CC1(c2ccc(Oc3ccccc3)cc2)OC(=O)N(Nc2ccccc2)C1=O` (configuration not stated) [Famoxadone] gave an NOAEL in data set [4] of 20 mg/kg-day. `C[n+]1ccc(-c2cc[n+](C)cc2)cc1` [Paraquat] gave an NOAEL in data set [3] (subchronic, duration: 90 days) of 0.5 mg/kg-day. As for `CC(Oc1ccc(Oc2ccc(Cl)cc2Cl)cc1)C(=O)O` (configuration not stated) [Diclofop], the NOAEL in data set [2] (reproduction developmental) is 3 mg/kg-day. The compound `ClC1C(Cl)C(Cl)C(Cl)C(Cl)C1Cl` (configuration not stated) [Lindane] yielded an NOAEL in data set [2] (developmental, development) of 5 mg/kg-day. Regarding `CC(C)N(C(=O)CCl)c1ccccc1` [Propachlor], the NOAEL in data set [2] (developmental, development) is 58 mg/kg-day.

As for `CN/C(=N\[N+](=O)[O-])NCc1cnc(Cl)s1` [Clothianidin], the NOAEL in data set [2] (reproduction developmental) and in data set [1] (reproduction developmental) was 10 mg/kg-day throughout. `CN1COCN(Cc2cnc(Cl)s2)/C1=N/[N+](=O)[O-]` [Thiamethoxam]: in data set [2] (developmental, development), the NOAEL was 50 mg/kg-day. With `O=C(Nc1ccccc1)Nc1cnns1` [Thidiazuron], the NOAEL in data set [2] (developmental, development) is 25 mg/kg-day. In data set [1] (developmental, development), `S=C1NCCN1` [4,5-Dihydro-2-mercaptoimidazole] registered an NOAEL of 5 mg/kg-day.

`CCCSP(=O)(OCC)Oc1ccc(Br)cc1Cl` (configuration not stated) [Profenofos]: the NOAEL in data set [1] (acute) was found to be 100 mg/kg-day.

Compound `COC(=O)c1c(Cl)c(Cl)c(C(=O)OC)c(Cl)c1Cl` [Chlorthal-dimethyl] displayed an NOAEL in data set [1] (subchronic, duration: 90 days) of 50 mg/kg-day. `O=C(O)C1(C(=O)Nc2ccc(Cl)cc2Cl)CC1` [Cyclanilide]: the NOAEL in data set [2] (reproduction developmental) is 3 mg/kg-day. In data set [2] (reproduction developmental), `C1CC[CH]([Sn+]([CH]2CCCCC2)[CH]2CCCCC2)CC1.[OH-]` [Cyhexatin] came in with an NOAEL of 2 mg/kg-day. `CON(C)C(=O)Nc1ccc(Cl)c(Cl)c1` [Linuron] registered an NOAEL in data set [2] (developmental, development) of 10 mg/kg-day. As for `CCNc1nc(Cl)nc(NC(C)C)n1` [Atrazine], in data set [1] (reproduction developmental), the NOAEL amounted to 2.5 mg/kg-day. In data set [1] (developmental, development), `COCC(=O)N(c1c(C)cccc1C)[C@H](C)C(=O)OC` [Metalaxyl-M] yielded an NOAEL of 50 mg/kg-day. Compound `CCOP(=S)(OCC)Oc1ccc([N+](=O)[O-])cc1` [Parathion] yielded an NOAEL in data set [1] (acute) of 0.5 mg/kg-day. As for `COC(=O)N(OC)c1ccccc1COc1ccn(-c2ccc(Cl)cc2)n1` [Pyraclostrobin], the NOAEL in data set [2] (developmental, development) was 3 mg/kg-day. Turning to `CC12CC1(C)C(=O)N(c1cc(Cl)cc(Cl)c1)C2=O` (configuration not stated) [Procymidone], in data set [1] (developmental, development), the NOAEL is 3.5 mg/kg-day. For the compound `CCOP(=S)(OCC)SCSC(C)(C)C` [Terbufos], the NOAEL in data set [1] (acute) was found to be 0.2 mg/kg-day. Regarding `CCOP(=S)(OCC)SCCSCC` [Disulfoton], in data set [1] (acute), the NOAEL was found to be 0.3 mg/kg-day. Consider `CCN(CC)C(=O)SCc1ccc(Cl)cc1` [Thiobencarb], for which the NOAEL in data set [1] (developmental, development) worked out at 25 mg/kg-day. `CCNc1nc(Cl)nc(NCC)n1` [Simazine] displayed an NOAEL in data set [1] (acute) of 2.5 mg/kg-day. As for `CCOP(=O)(SC(C)CC)N1CCSC1=O` (configuration not stated) [Fosthiazate], the NOAEL in data set [3] (chronic, duration: 1 years) is 0.5 mg/kg-day; in data set [3] (subchronic, duration: 90 days) it was 0.5 mg/kg-day. `CCOc1ccc2c(c1)C(C)=CC(C)(C)N2` [Ethoxyquin] displayed a no observed adverse effect level (NOAEL) in data set [3] (acute) of 50 mg/kg-day.

For the compound `COc1cccc(C(=O)NN(C(=O)c2cc(C)cc(C)c2)C(C)(C)C)c1C` [Methoxyfenozide], in data set [3] (short-term, duration: 2 weeks), the NOAEL was determined as 20 mg/kg-day. In the case of `CC(C)(C)[C@@H](O)/C(=C\c1ccc(Cl)cc1Cl)n1cncn1` [Diniconazole-M], the NOAEL in data set [1] (reproduction developmental) is 5 mg/kg-day.

The record behind these values is EPA's ToxValDB 9.5 (doi:10.2903/j.efsa.2012.2799).
